Values of other authors, collected in US20190358212A1, “USES OF EGFR/HER2 INHIBITOR COMBINED WITH PYRIMIDINE-TYPE ANTI-METABOLIC DRUG” (Jiangsu Hengrui Medicine Co., Ltd., priority 2017, published 2019).

How the values were obtained:
EGFR = EGFR (Homo sapiens, UniProt P00533); conditions: CN102471312A
[1] = test system: HER2+ metastatic breast cancer; conditions: J Clin Oncol 33, 2015 (suppl; abstr e11596)
HER2 = HER2 (Homo sapiens, UniProt P04626); conditions: CN102471312A
Sequence of HER2 (P04626 23-1255): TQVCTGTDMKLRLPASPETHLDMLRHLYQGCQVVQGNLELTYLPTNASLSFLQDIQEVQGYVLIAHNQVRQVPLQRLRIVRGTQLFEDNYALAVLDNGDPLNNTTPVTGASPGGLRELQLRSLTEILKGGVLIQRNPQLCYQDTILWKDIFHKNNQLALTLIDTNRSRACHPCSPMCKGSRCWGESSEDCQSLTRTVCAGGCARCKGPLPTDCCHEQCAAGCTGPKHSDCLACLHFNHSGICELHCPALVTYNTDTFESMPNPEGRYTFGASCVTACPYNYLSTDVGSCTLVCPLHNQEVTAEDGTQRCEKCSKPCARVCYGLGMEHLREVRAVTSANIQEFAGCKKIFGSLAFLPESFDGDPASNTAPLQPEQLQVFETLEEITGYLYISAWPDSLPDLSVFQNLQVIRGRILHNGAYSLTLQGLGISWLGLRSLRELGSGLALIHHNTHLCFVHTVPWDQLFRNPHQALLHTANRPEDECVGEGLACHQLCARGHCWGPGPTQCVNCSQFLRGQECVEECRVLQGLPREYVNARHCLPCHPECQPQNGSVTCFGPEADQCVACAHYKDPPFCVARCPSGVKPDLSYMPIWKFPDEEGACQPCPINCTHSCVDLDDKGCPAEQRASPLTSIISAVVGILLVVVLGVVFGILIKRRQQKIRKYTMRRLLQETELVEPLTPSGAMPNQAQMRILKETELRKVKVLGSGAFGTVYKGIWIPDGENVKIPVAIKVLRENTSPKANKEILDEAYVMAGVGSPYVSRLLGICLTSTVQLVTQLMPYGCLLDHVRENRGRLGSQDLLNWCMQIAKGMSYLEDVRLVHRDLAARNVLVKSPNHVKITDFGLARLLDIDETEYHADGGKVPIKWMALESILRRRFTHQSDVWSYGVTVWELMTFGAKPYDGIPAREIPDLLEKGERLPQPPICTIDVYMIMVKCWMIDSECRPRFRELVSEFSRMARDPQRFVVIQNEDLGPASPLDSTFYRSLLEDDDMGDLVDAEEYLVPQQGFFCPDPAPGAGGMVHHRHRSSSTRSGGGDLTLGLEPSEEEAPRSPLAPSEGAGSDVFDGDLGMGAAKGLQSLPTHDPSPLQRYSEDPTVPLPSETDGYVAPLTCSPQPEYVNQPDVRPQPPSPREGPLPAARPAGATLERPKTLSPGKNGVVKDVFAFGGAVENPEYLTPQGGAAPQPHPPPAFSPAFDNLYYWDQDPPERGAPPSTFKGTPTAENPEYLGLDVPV

Sequence of EGFR (P00533 25-1210): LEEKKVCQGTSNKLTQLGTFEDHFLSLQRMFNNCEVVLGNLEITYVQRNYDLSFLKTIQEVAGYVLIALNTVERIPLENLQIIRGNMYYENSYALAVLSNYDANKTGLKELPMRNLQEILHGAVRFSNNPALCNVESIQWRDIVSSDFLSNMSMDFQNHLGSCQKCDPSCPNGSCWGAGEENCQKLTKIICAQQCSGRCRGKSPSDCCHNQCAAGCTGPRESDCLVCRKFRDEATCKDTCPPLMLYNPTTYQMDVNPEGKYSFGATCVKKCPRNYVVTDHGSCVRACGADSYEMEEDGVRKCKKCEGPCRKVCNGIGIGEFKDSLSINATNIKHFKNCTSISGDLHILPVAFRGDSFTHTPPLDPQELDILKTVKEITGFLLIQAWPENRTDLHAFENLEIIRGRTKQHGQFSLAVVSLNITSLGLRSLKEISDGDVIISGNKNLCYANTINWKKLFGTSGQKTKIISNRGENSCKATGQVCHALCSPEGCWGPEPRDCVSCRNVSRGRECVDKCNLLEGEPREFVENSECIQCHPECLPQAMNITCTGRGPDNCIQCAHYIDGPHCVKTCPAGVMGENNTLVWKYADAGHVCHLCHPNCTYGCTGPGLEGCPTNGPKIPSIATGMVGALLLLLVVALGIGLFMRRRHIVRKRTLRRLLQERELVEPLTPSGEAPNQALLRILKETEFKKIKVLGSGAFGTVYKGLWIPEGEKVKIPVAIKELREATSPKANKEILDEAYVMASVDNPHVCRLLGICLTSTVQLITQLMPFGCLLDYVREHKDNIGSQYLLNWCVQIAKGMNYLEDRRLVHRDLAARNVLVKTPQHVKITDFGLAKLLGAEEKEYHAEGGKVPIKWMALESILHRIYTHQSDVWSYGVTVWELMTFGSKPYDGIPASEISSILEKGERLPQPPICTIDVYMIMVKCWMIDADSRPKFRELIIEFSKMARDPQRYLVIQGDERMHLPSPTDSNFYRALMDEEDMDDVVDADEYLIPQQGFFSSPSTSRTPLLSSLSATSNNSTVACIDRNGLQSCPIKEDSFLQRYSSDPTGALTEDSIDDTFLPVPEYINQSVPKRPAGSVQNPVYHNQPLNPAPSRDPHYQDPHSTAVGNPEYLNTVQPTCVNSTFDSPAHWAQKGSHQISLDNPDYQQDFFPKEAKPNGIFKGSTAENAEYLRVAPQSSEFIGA

For `CCOc1cc2ncc(C#N)c(Nc3ccc(OCc4ccccn4)c(Cl)c3)c2cc1NC(=O)/C=C/[C@H]1CCCN1C` [Compound A, (E)-N-[4-[[3-chloro-4-(2-pyridylmethoxy)phenyl]amino]-3-cyano-7-ethoxy-6-quinolyl]-3-[(2R)-1-methylpyrrolidin-2-yl]prop-2-enamide], the “inhibition effect on EGFR” value (EGFR) is listed as “potent inhibition effect”, the “effect on patients with HER2+ metastatic breast cancer” value [1] is listed as “a certain effect” and the “inhibition effect on HER2” value (HER2) is listed as “potent inhibition effect”.
